Assay results from ChEMBL document CHEMBL6083262, “Stereorandomized Oncocins with Preserved Ribosome Binding and Antibacterial Activity” (J Med Chem, 2024).
Converted amounts (≈) assume the structure as drawn. The source made the active and inactive calls. The rule behind the calls is not given here. Non-standard residues stand in square brackets, D forms with d. Residues, ends and D or L forms follow the SMILES beside them. ξ: configuration not given here. ξY = NC(Cc1ccc(O)cc1)C(=O)O; ξR = N=C(N)NCCCC(N)C(=O)O; ξD = NC(CC(=O)O)C(=O)O; ξN = NC(=O)CC(N)C(=O)O; ξI = CCC(C)C(N)C(=O)O; ξL = CC(C)CC(N)C(=O)O; ξK = NCCCCC(N)C(=O)O; ξV = CC(C)C(N)C(=O)O; ξP = O=C(O)C1CCCN1

What was measured:
Pseudomonas aeruginosa [1] = experiment: Antibacterial activity against multidrug-resistant Pseudomonas aeruginosa PA14 2P4 harboring pmrB mutant incubated for 16 to 20 hrs in full muller hinton medium by broth microdilution method; format: functional; settings: time 16-20 hrs
rRNA = experiment: Binding affinity to [gamma32 P-ATP] labeled Escherichia coli MG1655 23S ribosomal RNA (5-CCCTTGGGACCTACTTC-3') at U2506 position assessed as increase in band intensity at 1 uM incubated for 2.5 hrs in full muller hinton medium by CMCT based gel electrophoresis; format: nucleic-acid assay
Staphylococcus aureus [2] = experiment: Antimicrobial activity against methicillin-resistant Staphylococcus aureus COL incubated for 16 to 20 hrs in full muller hinton medium by broth microdilution method; format: functional; settings: time 16-20 hrs
Klebsiella pneumoniae [3] = experiment: Bacteriostatic activity against Klebsiella pneumoniae assessed as small intracellular vesicles at 8 times MIC in full muller hinton medium by transmission electron microscopic analysis; format: functional, organism-based
Escherichia coli [4] = experiment: Bacteriostatic activity against Escherichia coli at 8 times MIC in full muller hinton medium by Time-kill assay; format: functional, organism-based
Escherichia coli [5] = experiment: Bacteriostatic activity against Escherichia coli assessed as small intracellular vesicles at 8 times MIC in full muller hinton medium by transmission electron microscopic analysis; format: functional, organism-based
Enterobacter cloacae [6] = experiment: Antibacterial activity against multidrug-resistant Enterobacter cloacae incubated for 16 to 20 hrs in 12.5 % muller hinton medium by broth microdilution method; format: functional; settings: time 16-20 hrs
Pseudomonas aeruginosa [7] = experiment: Antimicrobial activity against Pseudomonas aeruginosa PAO1 incubated for 16 to 20 hrs in 12.5 % muller hinton medium by broth microdilution method; format: functional; settings: time 16-20 hrs
Escherichia coli [8] = experiment: Bacteriostatic activity against Escherichia coli assessed as detachment of inner membrane from outer membrane by measuring a large void at 8 times MIC in full muller hinton medium by transmission electron microscopic analysis; format: functional, organism-based
Klebsiella pneumoniae [9] = experiment: Bacteriostatic activity against Klebsiella pneumoniae assessed as detachment of inner membrane from outer membrane by measuring a large void at 8 times MIC in full muller hinton medium by transmission electron microscopic analysis; format: functional, organism-based
Pseudomonas aeruginosa [10] = experiment: Antibacterial activity against multidrug-resistant Pseudomonas aeruginosa PA14 incubated for 16 to 20 hrs in full muller hinton medium by broth microdilution method; format: functional; settings: time 16-20 hrs
Lipid bilayer [11] = experiment: Induction of membrane disruption in egg yolk phosphatidyl glycerol at 10 ug/ml by measuring vesicle leakage; settings: dose 10.0 µg/ml
Klebsiella pneumoniae [12] = experiment: Bacteriostatic activity against Klebsiella pneumoniae assessed as membrane perturbation at 8 times MIC in full muller hinton medium by transmission electron microscopic analysis; format: functional, organism-based
Pseudomonas aeruginosa [13] = experiment: Antibacterial activity against multidrug-resistant Pseudomonas aeruginosa clinical isolate ZEM9A incubated for 16 to 20 hrs in full muller hinton medium by broth microdilution method; format: functional; settings: time 16-20 hrs
Escherichia coli [14] = experiment: Antimicrobial activity against Escherichia coli W3110 incubated for 16 to 20 hrs in full muller hinton medium by broth microdilution method; format: functional; settings: time 16-20 hrs
[15] = Hemolytic activity in human RBC incubated for 4 hrs; format: toxicity, cell-based; settings: erythrocyte
Klebsiella pneumoniae [16] = experiment: Bacteriostatic activity against Klebsiella pneumoniae at 8 times MIC in full muller hinton medium by Time-kill assay; format: functional, organism-based
Lipid bilayer [17] = experiment: Induction of membrane disruption in egg yolk phosphatidyl choline at 10 ug/ml by measuring vesicle leakage; settings: dose 10.0 µg/ml
Staphylococcus aureus [18] = experiment: Antimicrobial activity against methicillin-resistant Staphylococcus aureus COL incubated for 16 to 20 hrs in 12.5 % muller hinton medium by broth microdilution method; format: functional; settings: time 16-20 hrs
Escherichia coli [19] = experiment: Bacteriostatic activity against Escherichia coli assessed as membrane perturbation at 8 times MIC in full muller hinton medium by transmission electron microscopic analysis; format: functional, organism-based
Klebsiella pneumoniae [20] = experiment: Antimicrobial activity against Klebsiella pneumoniae NCTC 418 incubated for 16 to 20 hrs in 12.5 % muller hinton medium by broth microdilution method; format: functional; settings: time 16-20 hrs
Pseudomonas aeruginosa [21] = experiment: Antimicrobial activity against Pseudomonas aeruginosa PAO1 incubated for 16 to 20 hrs in full muller hinton medium by broth microdilution method; format: functional; settings: time 16-20 hrs
Klebsiella pneumoniae [22] = experiment: Antibacterial activity against multidrug-resistant Klebsiella pneumoniae clinical isolate OXA-48 incubated for 16 to 20 hrs in full muller hinton medium by broth microdilution method; format: functional; settings: time 16-20 hrs
Pseudomonas aeruginosa [23] = experiment: Antibacterial activity against multidrug-resistant Pseudomonas aeruginosa clinical isolate ZEM-1A incubated for 16 to 20 hrs in 12.5 % muller hinton medium by broth microdilution method; format: functional; settings: time 16-20 hrs
Klebsiella pneumoniae [24] = experiment: Antibacterial activity against multidrug-resistant Klebsiella pneumoniae clinical isolate OXA-48 incubated for 16 to 20 hrs in 12.5 % muller hinton medium by broth microdilution method; format: functional; settings: time 16-20 hrs
Pseudomonas aeruginosa [25] = experiment: Antibacterial activity against multidrug-resistant Pseudomonas aeruginosa PA14 4.13 harboring phoQ mutant incubated for 16 to 20 hrs in full muller hinton medium by broth microdilution method; format: functional; settings: time 16-20 hrs
Pseudomonas aeruginosa [26] = experiment: Antibacterial activity against multidrug-resistant Pseudomonas aeruginosa PA14 4.18 harboring pmrB mutant incubated for 16 to 20 hrs in full muller hinton medium by broth microdilution method; format: functional; settings: time 16-20 hrs
Pseudomonas aeruginosa [27] = experiment: Antibacterial activity against multidrug-resistant Pseudomonas aeruginosa clinical isolate ZEM-1A incubated for 16 to 20 hrs in full muller hinton medium by broth microdilution method; format: functional; settings: time 16-20 hrs
Escherichia coli [28] = experiment: Antimicrobial activity against Escherichia coli W3110 incubated for 16 to 20 hrs in 12.5 % muller hinton medium by broth microdilution method; format: functional; settings: time 16-20 hrs
Klebsiella pneumoniae [29] = experiment: Antimicrobial activity against Klebsiella pneumoniae NCTC 418 incubated for 16 to 20 hrs in full muller hinton medium by broth microdilution method; format: functional; settings: time 16-20 hrs
Enterobacter cloacae [30] = experiment: Antibacterial activity against multidrug-resistant Enterobacter cloacae incubated for 16 to 20 hrs in full muller hinton medium by broth microdilution method; format: functional; settings: time 16-20 hrs

Structure (SMILES)	MIC (Pseudomonas aeruginosa [1])	Activity (rRNA)	MIC (Staphylococcus aureus [2])	Activity (Klebsiella pneumoniae [3])	Activity (Escherichia coli [4])	Activity (Escherichia coli [5])	MIC (Pseudomonas aeruginosa [7])	Activity (Escherichia coli [8])	Activity (Klebsiella pneumoniae [9])	MIC (Pseudomonas aeruginosa [10])	Activity (Lipid bilayer [11])	Activity (Klebsiella pneumoniae [12])	MIC (Pseudomonas aeruginosa [13])	MHC [15]	Activity (Klebsiella pneumoniae [16])	Activity (Lipid bilayer [17])	MIC (Staphylococcus aureus [18])	Activity (Escherichia coli [19])	also measured
CCC(C)C(NC(=O)C(CCCNC(=N)N)NC(=O)[C@H](CCCNC(=N)N)NC(=O)[C@@H]1CCCN1C(=O)[C@@H]1CCCN1C(=O)[C@H](CCCNC(=N)N)NC(=O)[C@@H]1CCCN1C(=O)[C@H](CCCNC(=N)N)NC(=O)[C@@H]1CCCN1C(=O)[C@H](CC(C)C)NC(=O)[C@H](Cc1ccc(O)cc1)NC(=O)[C@@H]1CCCN1C(=O)[C@@H]1CCCN1C(=O)[C@H](CCCCN)NC(=O)[C@H](CC(=O)O)NC(=O)[C@@H](N)C(C)C)C(=O)NC(Cc1ccc(O)cc1)C(=O)NC(CC(N)=O)C(=O)NC(CCCNC(=N)N)C(N)=O (stereo not given in full) (H-VDKPPYLPRPRPPR[ξR][ξI][ξY][ξN][ξR]-NH2)	> 64 µg/mL	Active	> 64 µg/mL	Active	Active	Active	8 µg/mL (≈ 3.35 µM)	Active	Active	> 64 µg/mL	Active	Active; Few Membrane Perturbation Observed	> 64 µg/mL	> 1000 µg/mL	Active	Active	> 16 µg/mL	Active; Few Membrane Perturbation Observed	MIC (Enterobacter cloacae [6]): 1 µg/mL (≈ 0.418 µM); MIC (Escherichia coli [14]): 4 µg/mL (≈ 1.67 µM)
CCC(C)C(NC(=O)C(CCCNC(=N)N)NC(=O)C(CCCNC(=N)N)NC(=O)C1CCCN1C(=O)C1CCCN1C(=O)C(CCCNC(=N)N)NC(=O)[C@@H]1CCCN1C(=O)[C@H](CCCNC(=N)N)NC(=O)[C@@H]1CCCN1C(=O)[C@H](CC(C)C)NC(=O)[C@H](Cc1ccc(O)cc1)NC(=O)[C@@H]1CCCN1C(=O)[C@@H]1CCCN1C(=O)[C@H](CCCCN)NC(=O)[C@H](CC(=O)O)NC(=O)[C@@H](N)C(C)C)C(=O)NC(Cc1ccc(O)cc1)C(=O)NC(CC(N)=O)C(=O)NC(CCCNC(=N)N)C(N)=O (stereo not given in full) (H-VDKPPYLPRP[ξR][ξP][ξP][ξR][ξR][ξI][ξY][ξN][ξR]-NH2)	> 64 µg/mL	Active	> 64 µg/mL	Active	Active	Active	–	Active	Active	> 64 µg/mL	Active	Active; Few Membrane Perturbation Observed	> 64 µg/mL	> 1000 µg/mL	Active	Active	–	Active; Few Membrane Perturbation Observed	–
CC[C@H](C)[C@H](NC(=O)[C@H](CCCNC(=N)N)NC(=O)C(CCCNC(=N)N)NC(=O)C1CCCN1C(=O)C1CCCN1C(=O)C(CCCNC(=N)N)NC(=O)C1CCCN1C(=O)C(CCCNC(=N)N)NC(=O)C1CCCN1C(=O)C(CC(C)C)NC(=O)C(Cc1ccc(O)cc1)NC(=O)C1CCCN1C(=O)C1CCCN1C(=O)C(CCCCN)NC(=O)C(CC(=O)O)NC(=O)C(N)C(C)C)C(=O)N[C@@H](Cc1ccc(O)cc1)C(=O)N[C@@H](CC(N)=O)C(=O)N[C@@H](CCCNC(=N)N)C(N)=O (stereo not given in full) (H-[ξV][ξD][ξK][ξP][ξP][ξY][ξL][ξP][ξR][ξP][ξR][ξP][ξP][ξR]RIYNR-NH2)	> 64 µg/mL	inactive	> 64 µg/mL	–	–	–	> 16 µg/mL	–	–	> 64 µg/mL	–	–	> 64 µg/mL	> 1000 µg/mL	–	–	> 64 µg/mL	–	MIC (Klebsiella pneumoniae [20]): > 16 µg/mL; MIC (Pseudomonas aeruginosa [21]): > 64 µg/mL; MIC (Klebsiella pneumoniae [22]): > 64 µg/mL; MIC (Pseudomonas aeruginosa [23]): > 64 µg/mL; MIC (Klebsiella pneumoniae [24]): > 64 µg/mL; MIC (Pseudomonas aeruginosa [25]): > 64 µg/mL; MIC (Pseudomonas aeruginosa [26]): > 64 µg/mL; MIC (Pseudomonas aeruginosa [27]): > 64 µg/mL; MIC (Escherichia coli [28]): 4 µg/mL (≈ 1.67 µM); MIC (Klebsiella pneumoniae [29]): > 64 µg/mL; MIC (Enterobacter cloacae [30]): > 64 µg/mL
